# What was measured:
# [1] = biological target: RAC-alpha serine/threonine-protein kinase (Homo sapiens) (UniProt P31749); test: Inhibition of human recombinant PKBalpha at 500 nM radiometric scintillation counting analysis relative to control
# [2] = biological target: Mast/stem cell growth factor receptor Kit (Homo sapiens) (UniProt P10721); test: Inhibition of human recombinant c-Kit at 5 nM by radiometric scintillation counting analysis relative to control
# [3] = tested on: RBL-2H3; test: Antiallergic activity against anti-DNP-IgE sensitized rat RBL-2H3 cells assessed as […] of degranulation by measuring beta-hexosaminidase release using P-nitrophenyl-N-acetyl-D-glucosamide as substrate at 0.2 uM measured after 1 hr by microplate reader relative to control; type: functional
# [4] = biological target: Cytoplasmic tyrosine-protein kinase BMX (Homo sapiens, UniProt P51813); test: Inhibition of human full length recombinant Bmx by radiometric scintillation counting analysis
# [5] = biological target: Tyrosine-protein kinase CSK (Homo sapiens, UniProt P41240); test: Inhibition of human full length recombinant CSK by radiometric scintillation counting analysis
# [6] = biological target: T1, Inhibitor of nuclear factor kappa-B kinase subunit alpha (Homo sapiens) (UniProt O15111); test: Inhibition of human full length recombinant IKKalpha at 5 nM by radiometric scintillation counting analysis relative to control
# T1 sequence (whole entry): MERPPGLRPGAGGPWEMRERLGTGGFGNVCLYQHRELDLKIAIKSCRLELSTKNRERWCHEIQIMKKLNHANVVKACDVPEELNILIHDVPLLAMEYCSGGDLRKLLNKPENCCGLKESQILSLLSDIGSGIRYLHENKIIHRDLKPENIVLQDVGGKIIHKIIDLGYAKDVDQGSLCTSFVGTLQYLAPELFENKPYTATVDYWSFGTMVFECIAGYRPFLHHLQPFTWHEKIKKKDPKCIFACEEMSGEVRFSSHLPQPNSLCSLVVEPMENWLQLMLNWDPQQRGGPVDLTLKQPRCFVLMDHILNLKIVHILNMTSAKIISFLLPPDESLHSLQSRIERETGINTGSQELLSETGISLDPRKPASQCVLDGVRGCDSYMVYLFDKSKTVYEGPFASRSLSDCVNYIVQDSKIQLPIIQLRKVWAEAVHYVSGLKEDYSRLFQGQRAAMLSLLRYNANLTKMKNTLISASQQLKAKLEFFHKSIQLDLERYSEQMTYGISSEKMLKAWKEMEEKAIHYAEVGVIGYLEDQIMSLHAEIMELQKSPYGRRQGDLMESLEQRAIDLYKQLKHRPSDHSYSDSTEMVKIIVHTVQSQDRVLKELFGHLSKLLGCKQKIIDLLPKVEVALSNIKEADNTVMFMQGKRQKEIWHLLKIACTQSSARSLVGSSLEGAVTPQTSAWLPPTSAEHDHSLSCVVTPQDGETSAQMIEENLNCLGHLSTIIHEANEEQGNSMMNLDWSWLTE
# [7] = biological target: Tyrosine-protein kinase ABL1 (Homo sapiens, UniProt P00519); test: Inhibition of human recombinant ABL1 using ATP/Ulight-TK peptide incubated for 15 mins
# Sequence of Tyrosine-protein kinase ABL1 (P00519 whole entry): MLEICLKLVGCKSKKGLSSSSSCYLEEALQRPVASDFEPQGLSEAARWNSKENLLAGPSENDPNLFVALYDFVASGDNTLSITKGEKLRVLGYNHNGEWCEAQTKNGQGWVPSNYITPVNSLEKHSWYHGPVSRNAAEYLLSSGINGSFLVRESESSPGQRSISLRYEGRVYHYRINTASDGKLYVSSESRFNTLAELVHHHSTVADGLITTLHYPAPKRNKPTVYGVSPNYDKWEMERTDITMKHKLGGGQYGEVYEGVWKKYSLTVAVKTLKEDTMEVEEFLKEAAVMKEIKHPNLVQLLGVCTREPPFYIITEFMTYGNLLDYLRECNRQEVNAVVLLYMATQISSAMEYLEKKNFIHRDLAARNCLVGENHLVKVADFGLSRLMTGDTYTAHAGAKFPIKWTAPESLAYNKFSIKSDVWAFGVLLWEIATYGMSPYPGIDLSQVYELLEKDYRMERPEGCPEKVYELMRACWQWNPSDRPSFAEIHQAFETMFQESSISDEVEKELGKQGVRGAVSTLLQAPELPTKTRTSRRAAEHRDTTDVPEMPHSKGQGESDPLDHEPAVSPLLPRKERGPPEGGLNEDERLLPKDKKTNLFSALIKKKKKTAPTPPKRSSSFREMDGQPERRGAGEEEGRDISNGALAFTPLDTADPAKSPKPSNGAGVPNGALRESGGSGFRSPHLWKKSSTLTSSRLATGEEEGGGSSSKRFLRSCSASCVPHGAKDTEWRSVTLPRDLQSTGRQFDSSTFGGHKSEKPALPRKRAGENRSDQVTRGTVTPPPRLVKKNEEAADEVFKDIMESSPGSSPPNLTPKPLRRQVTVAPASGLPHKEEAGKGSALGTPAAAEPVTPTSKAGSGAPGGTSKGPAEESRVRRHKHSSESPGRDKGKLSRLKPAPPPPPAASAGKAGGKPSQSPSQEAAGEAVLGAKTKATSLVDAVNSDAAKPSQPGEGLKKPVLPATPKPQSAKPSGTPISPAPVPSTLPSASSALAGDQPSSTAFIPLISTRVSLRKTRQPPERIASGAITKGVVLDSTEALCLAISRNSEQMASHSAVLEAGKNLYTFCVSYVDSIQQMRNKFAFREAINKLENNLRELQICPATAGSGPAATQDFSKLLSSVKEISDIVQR
# [8] = biological target: T2, Cytoplasmic tyrosine-protein kinase BMX (Homo sapiens) (UniProt P51813); test: Inhibition of human full length recombinant Bmx at 50 nM by radiometric scintillation counting analysis relative to control
# T2 sequence (whole entry): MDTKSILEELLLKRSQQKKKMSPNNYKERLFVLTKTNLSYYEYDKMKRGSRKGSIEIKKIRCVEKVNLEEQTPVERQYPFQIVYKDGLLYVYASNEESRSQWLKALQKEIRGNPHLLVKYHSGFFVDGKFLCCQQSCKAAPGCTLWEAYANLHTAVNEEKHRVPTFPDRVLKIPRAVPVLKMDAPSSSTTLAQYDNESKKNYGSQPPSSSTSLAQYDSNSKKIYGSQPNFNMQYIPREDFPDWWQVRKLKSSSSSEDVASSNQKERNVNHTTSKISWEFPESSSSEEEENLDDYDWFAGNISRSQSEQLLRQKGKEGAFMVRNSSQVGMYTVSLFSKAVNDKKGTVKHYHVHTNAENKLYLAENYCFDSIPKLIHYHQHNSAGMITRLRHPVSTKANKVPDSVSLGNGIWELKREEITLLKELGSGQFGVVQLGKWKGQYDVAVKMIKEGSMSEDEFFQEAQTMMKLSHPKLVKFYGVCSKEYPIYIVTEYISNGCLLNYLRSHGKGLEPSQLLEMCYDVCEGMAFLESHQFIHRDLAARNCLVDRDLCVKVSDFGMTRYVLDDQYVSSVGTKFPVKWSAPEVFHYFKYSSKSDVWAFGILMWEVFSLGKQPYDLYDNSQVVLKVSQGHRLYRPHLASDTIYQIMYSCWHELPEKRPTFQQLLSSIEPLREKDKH
# [9] = biological target: T3, Tyrosine-protein kinase Tec (Homo sapiens) (UniProt P42680); test: Inhibition of human recombinant Tec (174 to end) at 500 nM by radiometric scintillation counting analysis relative to control
# T3 sequence (whole entry): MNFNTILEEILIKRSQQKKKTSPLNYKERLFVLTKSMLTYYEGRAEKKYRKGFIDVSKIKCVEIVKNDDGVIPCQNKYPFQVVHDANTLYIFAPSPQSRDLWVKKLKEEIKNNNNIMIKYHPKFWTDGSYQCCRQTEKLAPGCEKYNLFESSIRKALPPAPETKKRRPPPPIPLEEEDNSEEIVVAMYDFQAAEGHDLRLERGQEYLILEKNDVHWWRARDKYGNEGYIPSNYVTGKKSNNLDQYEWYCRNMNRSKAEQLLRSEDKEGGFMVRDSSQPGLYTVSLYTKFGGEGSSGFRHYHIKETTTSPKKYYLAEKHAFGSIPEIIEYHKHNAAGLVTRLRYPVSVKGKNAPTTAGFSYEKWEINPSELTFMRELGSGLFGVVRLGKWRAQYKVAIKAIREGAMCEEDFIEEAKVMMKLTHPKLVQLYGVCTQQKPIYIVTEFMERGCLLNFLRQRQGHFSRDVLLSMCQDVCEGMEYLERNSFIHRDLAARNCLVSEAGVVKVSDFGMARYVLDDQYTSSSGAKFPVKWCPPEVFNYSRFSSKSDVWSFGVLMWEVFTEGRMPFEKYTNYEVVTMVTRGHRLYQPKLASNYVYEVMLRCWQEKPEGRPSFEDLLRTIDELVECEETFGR
# [10] = biological target: Tyrosine-protein kinase HCK (Homo sapiens, UniProt P08631); test: Inhibition of human recombinant HCK (230 to 497) by radiometric scintillation counting analysis
# Sequence of Tyrosine-protein kinase HCK (P08631 whole entry): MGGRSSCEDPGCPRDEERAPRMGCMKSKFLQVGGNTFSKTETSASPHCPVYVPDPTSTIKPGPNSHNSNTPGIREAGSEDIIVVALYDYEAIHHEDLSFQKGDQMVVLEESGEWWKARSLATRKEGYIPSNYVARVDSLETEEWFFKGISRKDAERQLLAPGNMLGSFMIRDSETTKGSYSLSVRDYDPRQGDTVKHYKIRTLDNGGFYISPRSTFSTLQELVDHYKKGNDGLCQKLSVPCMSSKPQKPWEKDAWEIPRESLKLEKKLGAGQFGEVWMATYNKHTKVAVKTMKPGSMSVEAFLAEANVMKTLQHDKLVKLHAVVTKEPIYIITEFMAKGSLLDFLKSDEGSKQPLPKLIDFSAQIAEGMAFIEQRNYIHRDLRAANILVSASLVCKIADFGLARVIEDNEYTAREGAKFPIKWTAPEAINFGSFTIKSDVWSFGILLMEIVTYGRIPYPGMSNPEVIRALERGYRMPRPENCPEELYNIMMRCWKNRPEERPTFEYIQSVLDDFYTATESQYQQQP
# [11] = biological target: Tyrosine-protein kinase Lck (Homo sapiens, UniProt P06239); test: Inhibition of human full length recombinant LCK by radiometric scintillation counting analysis
# Sequence of Tyrosine-protein kinase Lck (P06239 whole entry): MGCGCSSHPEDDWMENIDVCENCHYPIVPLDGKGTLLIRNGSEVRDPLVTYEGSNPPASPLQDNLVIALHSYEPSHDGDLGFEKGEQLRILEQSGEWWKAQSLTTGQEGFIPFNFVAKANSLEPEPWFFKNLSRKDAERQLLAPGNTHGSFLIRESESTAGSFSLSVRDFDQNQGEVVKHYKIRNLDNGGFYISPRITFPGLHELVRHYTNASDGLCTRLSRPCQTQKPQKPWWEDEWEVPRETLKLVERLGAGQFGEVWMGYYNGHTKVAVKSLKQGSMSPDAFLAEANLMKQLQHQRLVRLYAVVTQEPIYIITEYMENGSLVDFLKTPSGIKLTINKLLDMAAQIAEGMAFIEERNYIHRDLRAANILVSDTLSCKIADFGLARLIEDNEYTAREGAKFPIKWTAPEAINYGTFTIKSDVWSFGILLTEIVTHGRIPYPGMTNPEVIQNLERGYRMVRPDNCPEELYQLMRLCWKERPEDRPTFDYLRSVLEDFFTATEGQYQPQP
# [12] = biological target: T1, Inhibitor of nuclear factor kappa-B kinase subunit alpha (Homo sapiens); test: Inhibition of human full length recombinant IKKalpha at 50 nM by radiometric scintillation counting analysis relative to control
# [13] = biological target: Tyrosine-protein kinase Fyn (Homo sapiens, UniProt P06241); test: Inhibition of human full length recombinant Fyn by radiometric scintillation counting analysis
# Sequence of Tyrosine-protein kinase Fyn (P06241 whole entry): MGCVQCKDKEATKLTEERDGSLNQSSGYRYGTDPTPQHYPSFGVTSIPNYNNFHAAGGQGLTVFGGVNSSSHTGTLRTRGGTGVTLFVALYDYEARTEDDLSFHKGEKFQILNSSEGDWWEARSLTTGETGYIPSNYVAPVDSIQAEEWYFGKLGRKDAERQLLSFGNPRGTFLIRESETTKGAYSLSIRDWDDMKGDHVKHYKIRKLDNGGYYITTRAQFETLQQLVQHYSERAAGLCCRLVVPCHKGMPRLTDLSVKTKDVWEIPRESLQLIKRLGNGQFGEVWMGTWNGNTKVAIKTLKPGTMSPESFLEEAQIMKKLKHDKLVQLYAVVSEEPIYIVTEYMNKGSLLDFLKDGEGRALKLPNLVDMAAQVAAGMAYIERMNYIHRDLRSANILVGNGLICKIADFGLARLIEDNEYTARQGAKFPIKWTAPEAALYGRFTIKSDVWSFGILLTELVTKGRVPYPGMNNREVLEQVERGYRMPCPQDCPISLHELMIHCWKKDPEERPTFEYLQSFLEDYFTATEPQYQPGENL
# Sequence of Mast/stem cell growth factor receptor Kit (Homo sapiens) (P10721 whole entry): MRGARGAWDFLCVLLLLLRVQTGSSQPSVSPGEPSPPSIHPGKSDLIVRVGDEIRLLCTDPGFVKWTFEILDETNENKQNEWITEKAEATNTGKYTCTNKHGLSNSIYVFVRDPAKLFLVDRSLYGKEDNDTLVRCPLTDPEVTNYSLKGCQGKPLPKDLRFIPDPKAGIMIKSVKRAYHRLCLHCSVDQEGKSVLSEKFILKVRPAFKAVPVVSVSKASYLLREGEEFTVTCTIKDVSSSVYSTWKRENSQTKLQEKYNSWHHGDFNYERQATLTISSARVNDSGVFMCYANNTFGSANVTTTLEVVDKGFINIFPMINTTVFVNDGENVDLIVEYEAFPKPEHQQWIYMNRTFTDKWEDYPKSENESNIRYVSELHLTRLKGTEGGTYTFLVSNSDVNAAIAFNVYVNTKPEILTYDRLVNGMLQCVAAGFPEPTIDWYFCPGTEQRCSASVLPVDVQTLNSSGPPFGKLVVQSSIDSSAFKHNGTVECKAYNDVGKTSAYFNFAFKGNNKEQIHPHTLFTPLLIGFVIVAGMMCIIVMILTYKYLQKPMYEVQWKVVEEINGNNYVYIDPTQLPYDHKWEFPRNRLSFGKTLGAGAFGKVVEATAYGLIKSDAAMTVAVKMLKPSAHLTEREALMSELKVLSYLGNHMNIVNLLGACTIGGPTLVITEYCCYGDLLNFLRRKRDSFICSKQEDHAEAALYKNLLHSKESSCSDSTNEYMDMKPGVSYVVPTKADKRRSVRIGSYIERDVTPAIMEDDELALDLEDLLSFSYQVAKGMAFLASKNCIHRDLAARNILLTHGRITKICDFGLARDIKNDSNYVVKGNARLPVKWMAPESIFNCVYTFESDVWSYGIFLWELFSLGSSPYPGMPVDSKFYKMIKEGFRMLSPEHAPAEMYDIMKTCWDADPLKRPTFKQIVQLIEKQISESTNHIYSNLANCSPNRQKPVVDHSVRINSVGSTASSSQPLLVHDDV
# Sequence of RAC-alpha serine/threonine-protein kinase (Homo sapiens) (P31749 whole entry): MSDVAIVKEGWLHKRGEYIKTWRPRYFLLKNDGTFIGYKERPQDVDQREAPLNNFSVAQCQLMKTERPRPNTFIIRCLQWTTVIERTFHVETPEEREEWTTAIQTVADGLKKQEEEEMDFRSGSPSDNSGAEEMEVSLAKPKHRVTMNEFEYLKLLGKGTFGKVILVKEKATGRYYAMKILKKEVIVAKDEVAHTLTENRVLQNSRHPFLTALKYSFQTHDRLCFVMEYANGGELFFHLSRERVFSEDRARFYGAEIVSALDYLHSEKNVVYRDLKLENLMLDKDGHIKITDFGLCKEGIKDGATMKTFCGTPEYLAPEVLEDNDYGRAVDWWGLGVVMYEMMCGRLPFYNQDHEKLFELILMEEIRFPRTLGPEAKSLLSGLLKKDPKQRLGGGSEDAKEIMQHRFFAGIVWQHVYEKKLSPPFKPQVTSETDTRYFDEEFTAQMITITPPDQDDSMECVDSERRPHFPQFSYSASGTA
inhibition [1] [%],SMILES,inhibition [2] [%],inhibition at 0.2 µM [3] [%],IC50 [4] [nM],IC50 [5] [nM],inhibition [6] [%],IC50 [7] [nM],inhibition [8] [%],inhibition [9] [%],IC50 [10] [nM],IC50 [11] [nM],inhibition [12] [%],IC50 [13] [nM]
-5,Cc1ccc(C(=O)Nc2ccc(OC(F)(F)F)cc2)cc1C#Cc1cc(-c2cnn(C)c2)cnc1N,13,122,,,,,,,,,,
,Cc1ccc(C(=O)Nc2cc(C(F)(F)F)cc(C(F)(F)F)c2)cc1C#Cc1cc(-c2cnn(C)c2)cnc1N,7,162,126,187,9,22,24,-3,9,101,3,56
2,Cc1ccc(C(=O)Nc2ccc(Cl)cc2Cl)cc1C#Cc1cc(-c2cnn(C)c2)cnc1N,,,> 1000,> 1000,6,7,23,-7,57,29,9,307

# Reference: ChEMBL document CHEMBL4837249, “Discovery of Potent Antiallergic Agents Based on an o-Aminopyridinyl Alkynyl Scaffold” (J Med Chem, 2021)
